Experimental data published in ChEMBL document CHEMBL4373702, “Intracellular Trapping of the Selective Phosphoglycerate Dehydrogenase (PHGDH) Inhibitor BI-4924 Disrupts Serine Biosynthesis” (J Med Chem, 2019).

Tests used:
[1] = target: T1, D-3-phosphoglycerate dehydrogenase (Homo sapiens, UniProt O43175); test: Inhibition of N-terminal His6-tagged human PHGDH (4 to 315 residues) assessed as effect on NADH fluorescence incubated for 2 hrs using 3-PG substrate in presence of 250 uM NAD+ and PSAT1 by diaphorase based luminescence assay
T1 sequence (O43175 whole entry): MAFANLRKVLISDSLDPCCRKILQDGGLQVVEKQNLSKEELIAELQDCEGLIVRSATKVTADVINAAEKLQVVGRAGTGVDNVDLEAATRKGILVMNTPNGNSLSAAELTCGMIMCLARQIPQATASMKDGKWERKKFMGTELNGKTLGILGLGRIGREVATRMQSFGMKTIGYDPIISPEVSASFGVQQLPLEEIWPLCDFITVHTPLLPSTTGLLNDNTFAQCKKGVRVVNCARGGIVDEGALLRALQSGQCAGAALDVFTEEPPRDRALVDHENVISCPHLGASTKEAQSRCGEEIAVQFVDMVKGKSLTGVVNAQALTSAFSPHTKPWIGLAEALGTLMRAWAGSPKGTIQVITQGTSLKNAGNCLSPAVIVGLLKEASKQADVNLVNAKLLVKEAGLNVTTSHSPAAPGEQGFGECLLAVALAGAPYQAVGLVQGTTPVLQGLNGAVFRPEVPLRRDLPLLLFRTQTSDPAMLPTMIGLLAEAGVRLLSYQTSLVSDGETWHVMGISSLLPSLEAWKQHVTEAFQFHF

[2] = target: T1, D-3-phosphoglycerate dehydrogenase; test: Inhibition of N-terminal His6-tagged human PHGDH (4 to 315 residues) assessed as effect on NADH fluorescence incubated for 2 hrs using 3-PG substrate in presence of 19 uM NAD+ and PSAT1 by diaphorase based luminescence assay
[3] = target: T1, D-3-phosphoglycerate dehydrogenase; test: Binding affinity to human PHGDH ( 1 to 533 residues) expressed in Escherichia coli Rosetta (DE3) by Sypro-orange dye based differential scanning fluorimetry
[4] = Half life in 10% fetal calf serum; type: ADME, cell-free, Bos taurus; settings: cattle
[5] = target: T1, D-3-phosphoglycerate dehydrogenase; test: Inhibition of PHGDH in human MDA-MB-468 cells assessed as reduction in [13C]-serine incubated for 72 hrs using [13C]glucose as substrate by LC-MS/MS analysis; type: cell-based
[6] = target: T1, D-3-phosphoglycerate dehydrogenase; test: Inhibition of PHGDH in human MDA-MB-468 cells assessed as reduction in [13C]-serine incubated for 1 hr using [13C]glucose as substrate by LC-MS/MS analysis; type: cell-based
[7] = Drug uptake in human MDA-MB-468 cells assessed as BI-4924 levels at 3 uM measured up to 72 hrs; type: ADME, cell-based; settings: mda-mb-468, 72 h, TDE = time-dependent effect
[8] = Half life in mouse serum; type: ADME, cell-free
[9] = Drug uptake in human MDA-MB-468 cells assessed as BI-4924 levels at 3 uM measured up to 72 hrs relative to control; type: ADME, cell-based; settings: mda-mb-468, 72 h
[10] = target: T1, D-3-phosphoglycerate dehydrogenase; test: Binding affinity to N-terminal His6-tagged human PHGDH (4 to 315 residues)by SPR assay
[11] = target: T1, D-3-phosphoglycerate dehydrogenase; test: Inhibition of His6-tagged PHGDH (unknown origin) expressed in Escherichia coli BL21 assessed as effect on NADH fluorescence incubated for 60 mins using 3-PG as substrate in presence of 500 uM NAD+ and PSAT1 by diaphorase and resazurin dye based fluorescence assay

IC50 [2] [µM]	SMILES	also measured
0.058	C[C@@H](NC(=O)c1cc2c3ccccc3ccc2n1C)c1ccc(C(=O)O)cc1	IC50 [1]: 0.345 µM
0.4	C[C@@H](NC(=O)c1cc(-c2ccccc2)nn1C)c1ccc(C(=O)O)cc1	–
21.5	C[C@@H](NC(=O)c1cc(-c2ccccc2)nn1C)c1ccc(-c2cncnc2)cc1	–
0.254	C[C@@H](NC(=O)c1cc2cc(Cl)ccc2n1C)c1ccc(C(=O)O)cc1	IC50 [1]: 2.37 µM
> 100	C[C@@H](NC(=O)c1cc(-c2ccccc2)nn1C)c1ccc(NC(=N)N)cc1	–
0.9	CC(NC(=O)c1cc(-c2ccccc2)nn1C)c1ccc(C(=O)O)cc1 (racemic)	–
23.2	Cc1ccc([C@@H](C)NC(=O)c2cc(-c3ccccc3)nn2C)cc1	–
53.8	C[C@@H](NC(=O)c1cc(-c2ccccc2)nn1C)c1ccc(NS(C)(=O)=O)cc1	–
16.2	COc1ccc([C@@H](C)NC(=O)c2cc(-c3ccccc3)nn2C)cc1	–
12.2	C[C@@H](NC(=O)c1cc(-c2ccccc2)nn1C)c1ccc(N2CC[C@H](O)C2)cc1	–
0.8	CC(NC(=O)c1cc(-c2ccccc2)nn1C)c1ccc(CC(=O)O)cc1 (racemic)	–
1.3	Cn1nc(-c2ccccc2)cc1C(=O)NC(C)(C)c1ccc(C(=O)O)cc1	–
42.1	C[C@@H](NC(=O)c1cc(-c2ccccc2)nn1C)c1ccc(N2CCCC2)cc1	–
3.3	C[C@@H](NC(=O)c1cc(-c2ccccc2)nn1C)c1ccc(N2CCCC2=O)cc1	–
2.5	C[C@@H](NC(=O)c1cc(-c2ccccc2)nn1C)c1ccc(N2CCCS2(=O)=O)cc1	–
5.83	CC(NC(=O)c1cc(-c2ccccc2)nn1C)c1ccc(S(C)(=O)=O)cc1 (racemic)	–
6	C[C@@H](NC(=O)c1cc(-c2ccccc2)nn1C)c1ccc(CO)cc1	–
55.4	C[C@@H](NC(=O)c1cc(-c2ccccc2)nn1C)c1ccc([N+](=O)[O-])cc1	–
1.95	C[C@@H](NC(=O)c1cc2ccccc2n1C)c1ccc(C(=O)O)cc1	–
2.3	C[C@@H](NC(=O)c1cc(-c2ccccc2)nn1C)c1ccc(N2C(=O)CNC2=O)cc1	–

IC50 [2] [µM]	SMILES	also measured
6.7	CC(NC(=O)c1cc(-c2ccccc2)nn1C)c1ccc(N(C)S(C)(=O)=O)cc1 (racemic)	–
0.1	C[C@@H](NC(=O)c1cc(-c2ccccc2)nn1C)c1ccc(N2C(=O)CC[C@H]2C(=O)O)cc1	–
0.1	CC(=O)NS(=O)(=O)c1ccc([C@@H](C)NC(=O)c2cc(-c3ccccc3)nn2C)cc1	–
0.3	C[C@@H](NC(=O)c1cc(-c2ccccc2)nn1C)c1ccc(C(=O)NS(C)(=O)=O)cc1	–
0.025	C[C@@H](NC(=O)c1cc(-c2ccccc2)nn1C)c1ccc(S(=O)(=O)CC(=O)O)cc1	–
5.2	C[C@@H](NC(=O)c1cc(-c2ccccc2)nn1C)c1ccc(N2C[C@@H](O)[C@@H](O)C2)cc1	–
> 100	C[C@@H](NC(=O)c1cc(-c2ccccc2)nn1C)c1ccc(N(C)C(=N)N)cc1	–
4.3	CC(NC(=O)c1cc(-c2ccccc2)nn1C)c1ccc(S(N)(=O)=O)cc1 (racemic)	–
0.07	CC(=O)NS(=O)(=O)c1ccc(C(C)NC(=O)c2cc(-c3ccccc3)nn2C)cc1 (racemic)	–
0.03	C[C@@H](NC(=O)c1cc2c(Cl)c(Cl)ccc2n1C)c1ccc(C(=O)O)cc1	IC50 [1]: 0.228 µM
5.7	Cn1nc(-c2ccccc2)cc1C(=O)NCc1ccc(C(=O)O)cc1	–
1.4	C[C@@H](NC(=O)c1cc(-c2ccccc2)nn1C)c1ccc(N(CC(=O)O)S(C)(=O)=O)cc1	–
> 100	Cn1nc(-c2ccccc2)cc1C(=O)NCc1ccccc1	–
33.7	CC(NC(=O)c1cc(-c2ccccc2)nn1C)c1ccc(C#N)cc1 (racemic)	–
0.028	Cc1cc2c(cc(C(=O)N[C@H](C)c3ccc(C(=O)O)cc3)n2C)c2ccccc12	IC50 [1]: 0.249 µM
> 100	C[C@H](NC(=O)c1cc(-c2ccccc2)nn1C)c1ccccc1	–
3.1	C[C@@H](NC(=O)c1cc(-c2ccccc2)nn1C)c1ccc(C(N)=O)cc1	–
22	C[C@@H](NC(=O)c1cc(-c2ccccc2)nn1C)c1ccccc1	–
38.1	C[C@@H](NC(=O)c1cc(-c2ccccc2)nn1C)c1ccc(N)cc1	–

More lines, now with the values behind:

SMILES	IC50 [2] [µM]	also measured
C[C@@H](NC(=O)c1cc2c(Cl)cc(C(F)F)cc2n1C)c1ccc(C(=O)O)cc1	0.081	IC50 [1]: 0.714 µM
Cn1c(C(=O)NC(CN)c2ccccc2)cc2cc(Cl)ccc21 (racemic)	39.6	–
NC(=O)c1ccc(F)c(Cl)c1	–	Kd [3]: 1500 µM
Cc1cc2c(cc1Cl)cc(C(=O)N[C@H](C)c1ccc(C(=O)O)cc1)n2C	0.051	IC50 [1]: 0.412 µM
Cc1cc(Cl)c2cc(C(=O)N[C@H](C)c3ccc(S(=O)(=O)CC(=O)O)cc3)n(C)c2c1	0.003	–
CCc1cc(Cl)c2cc(C(=O)N[C@H](C)c3ccc(C(=O)O)cc3)n(C)c2c1	0.03	IC50 [1]: 0.301 µM
Cc1cc2c(cc(C(=O)N[C@H](C)c3ccc(S(=O)(=O)CC(=O)O)cc3)n2C)c(Cl)c1Cl	0.002	–
CCOC(=O)CS(=O)(=O)c1ccc([C@@H](CO)NC(=O)c2cc3c(Cl)c(Cl)c(C)cc3n2C)cc1	–	half-life [4]: 4.6 h; IC50 [5]: 2 µM; IC50 [6]: 0.029 µM; Drug uptake [7]: Tde; half-life [8]: 2.25 h; fold change (FC) [9]: <= 140
Cc1cc2c(cc(C(=O)N[C@H](C)c3ccc(C(=O)O)cc3)n2C)c(Cl)c1Cl	0.014	IC50 [1]: 0.095 µM
COCC(NC(=O)c1cc2cc(Cl)ccc2n1C)c1ccccc1 (racemic)	> 100	–
C[C@@H](NC(=O)c1cc2cc(Cl)c(Br)cc2n1C)c1ccc(C(=O)O)cc1	0.061	IC50 [1]: 0.341 µM
COc1cc(F)c(Cl)c2cc(C(=O)N[C@H](C)c3ccc(C(=O)O)cc3)n(C)c12	0.123	IC50 [1]: 1.29 µM
Cn1c(C(=O)NC(C(=O)O)c2ccccc2)cc2cc(Cl)ccc21 (racemic)	> 100	–
Cn1c(C(=O)Nc2cccc(C(=O)O)c2)cc2ccccc21	–	Kd [10]: 144 µM
COc1cc(Cl)cc2cc(C(=O)N[C@H](C)c3ccc(C(=O)O)cc3)n(C)c12	0.072	IC50 [1]: 0.746 µM
Cn1c(C(=O)N[C@@H](c2ccccc2)[C@@H](O)C(F)(F)F)cc2cc(Cl)ccc21 (relative stereo)	> 100	–
C[C@@H](O)[C@@H](NC(=O)c1cc2cc(Cl)ccc2n1C)c1ccccc1	12.1	–
Cn1c(C(=O)N[C@@H](c2ccccc2)[C@H](O)C(F)(F)F)cc2cc(Cl)ccc21 (relative stereo)	> 100	–
Cc1cc(Cl)c2cc(C(=O)N[C@H](C)c3ccc(C(=O)O)cc3)n(C)c2c1	0.028	IC50 [1]: 0.246 µM
Cn1c(C(=O)NC(C(N)=O)c2ccccc2)cc2cc(Cl)ccc21 (racemic)	> 100	–
C[C@H](O)[C@@H](NC(=O)c1cc2cc(Cl)ccc2n1C)c1ccccc1	11.7	–
Cn1c(C(=O)NC(CCO)c2ccccc2)cc2cc(Cl)ccc21 (racemic)	100	–
Cn1nc(-c2ccccc2)cc1C(=O)NC1CC1	–	Kd [10]: 105 µM
CC(=O)NS(=O)(=O)N1CCC(NC(=O)c2cc3c(Cl)c(Cl)ccc3n2C)C(CC(=O)O)C1 (stereo not drawn)	–	IC50 [11]: 0.01 to 1.5 µM
Cn1c(C(=O)NC(CO)c2ccccc2)cc2cc(Cl)ccc21 (racemic)	5.2	–
C[C@@H](NC(=O)c1cc2cc(Cl)cc(OC(F)(F)F)c2n1C)c1ccc(C(=O)O)cc1	0.824	IC50 [1]: 6.69 µM
